Assay results: ChEMBL document CHEMBL2074387, “Expression of the bile salt export pump is maintained after chronic cholestasis in the rat” (Gastroenterology, 2000)

Experiments:
Bile salt export pump = molecular target: T1, Bile salt export pump (Rattus norvegicus, UniProt O70127); assay: TP_TRANSPORTER: Western in vivo SD rat, liver; format: functional, organism-based, Sprague-Dawley
T1 sequence (O70127 whole entry): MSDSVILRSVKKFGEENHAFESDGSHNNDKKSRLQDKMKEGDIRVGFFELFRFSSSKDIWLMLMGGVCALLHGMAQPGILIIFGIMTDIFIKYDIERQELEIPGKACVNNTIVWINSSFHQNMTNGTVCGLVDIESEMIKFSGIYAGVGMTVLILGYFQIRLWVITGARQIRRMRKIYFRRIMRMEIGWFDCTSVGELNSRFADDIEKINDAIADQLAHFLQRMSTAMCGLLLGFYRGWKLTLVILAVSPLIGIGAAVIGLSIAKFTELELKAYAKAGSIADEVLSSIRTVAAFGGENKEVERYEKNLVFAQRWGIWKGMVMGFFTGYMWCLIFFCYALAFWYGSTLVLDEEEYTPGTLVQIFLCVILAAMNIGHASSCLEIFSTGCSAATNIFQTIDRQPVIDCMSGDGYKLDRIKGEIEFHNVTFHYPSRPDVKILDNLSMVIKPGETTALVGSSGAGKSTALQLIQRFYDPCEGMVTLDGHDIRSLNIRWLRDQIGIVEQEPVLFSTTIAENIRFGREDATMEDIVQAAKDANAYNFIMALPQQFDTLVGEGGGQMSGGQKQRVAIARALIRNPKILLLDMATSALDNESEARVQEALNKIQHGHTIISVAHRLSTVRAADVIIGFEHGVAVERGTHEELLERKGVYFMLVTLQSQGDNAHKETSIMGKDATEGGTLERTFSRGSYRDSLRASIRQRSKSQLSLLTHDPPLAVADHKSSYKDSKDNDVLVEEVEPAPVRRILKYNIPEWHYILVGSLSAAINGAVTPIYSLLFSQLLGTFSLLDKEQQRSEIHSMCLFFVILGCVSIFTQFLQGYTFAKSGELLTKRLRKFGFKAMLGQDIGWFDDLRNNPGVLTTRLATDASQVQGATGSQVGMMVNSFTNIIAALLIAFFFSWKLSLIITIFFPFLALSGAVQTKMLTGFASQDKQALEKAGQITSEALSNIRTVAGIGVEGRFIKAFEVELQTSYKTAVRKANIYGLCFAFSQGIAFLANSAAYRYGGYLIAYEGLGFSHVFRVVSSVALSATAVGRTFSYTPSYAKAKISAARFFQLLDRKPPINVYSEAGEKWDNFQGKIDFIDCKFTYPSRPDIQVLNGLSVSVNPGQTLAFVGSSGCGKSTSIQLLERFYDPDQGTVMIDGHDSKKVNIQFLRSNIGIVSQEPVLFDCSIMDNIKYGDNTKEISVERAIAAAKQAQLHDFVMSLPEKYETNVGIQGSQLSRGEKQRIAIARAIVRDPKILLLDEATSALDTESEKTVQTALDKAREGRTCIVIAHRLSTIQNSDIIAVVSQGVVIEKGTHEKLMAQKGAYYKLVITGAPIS

[1] = molecular target: T2, Hepatic sodium/bile acid cotransporter (Rattus norvegicus, UniProt P26435); assay: TP_TRANSPORTER: Northern blot in vivo SD rat, liver; format: functional, organism-based, Sprague-Dawley
T2 sequence (P26435 whole entry): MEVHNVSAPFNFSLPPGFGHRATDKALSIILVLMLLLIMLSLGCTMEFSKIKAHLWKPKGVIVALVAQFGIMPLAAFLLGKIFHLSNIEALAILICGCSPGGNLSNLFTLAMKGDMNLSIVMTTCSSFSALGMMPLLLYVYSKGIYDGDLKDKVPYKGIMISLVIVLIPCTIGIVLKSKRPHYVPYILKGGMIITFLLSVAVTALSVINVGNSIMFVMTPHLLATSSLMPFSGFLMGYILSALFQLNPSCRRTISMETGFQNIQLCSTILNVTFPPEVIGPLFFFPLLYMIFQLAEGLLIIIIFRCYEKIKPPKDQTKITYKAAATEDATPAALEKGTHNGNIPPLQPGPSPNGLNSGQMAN

For C#C[C@]1(O)CC[C@H]2[C@@H]3CCc4cc(O)ccc4[C@H]3CC[C@@]21C [ETHINYL ESTRADIOL], the Activity (Bile salt export pump) was “inducer [Decrease]” and the Activity [1] was “inducer [Decrease]”.
